10 molecules from US20210038607A1, “OXADIAZOLYLTHIOPHENE DERIVATIVES USEFUL AS HISTONE DEACETYLASE INHIBITORS” (Karus Therapeutics Limited, priority 2018, published 2021) can be followed below.

In one assay the target is T1, Human HDAC1 (Homo sapiens, UniProt Q13547).
T1 construct: full length with C-terminal His-tag and C-terminal FLAG-tag; His (C); FLAG (C); host or cells: baculovirus expression system
Nature of the assay: HDAC1 biochemical assay, AMC-labeled peptide substrate. The note with it: read-out: HDAC Isoform IC50 (nM) 1. In a few lines: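 Two-step fluorogenic read: HDAC1 deacetylates 50 μM acetyl-lysine AMC peptide RHKK(Ac)AMC for 1 h at 30° C (pH 8.0, 1% DMSO, with compound), then developer digests the product for fluorescence at Ex/Em 360/460. Enzyme is full-length human, His/FLAG-tagged, insect-cell expressed, at 0.3 ng/ul.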

In another assay the target is T2, Human HDAC2 (Homo sapiens, UniProt Q92769).
T2 construct: full length with C-terminal GST-tag; GST (C); host or cells: baculovirus expression system
T2 sequence (Q92769 whole entry): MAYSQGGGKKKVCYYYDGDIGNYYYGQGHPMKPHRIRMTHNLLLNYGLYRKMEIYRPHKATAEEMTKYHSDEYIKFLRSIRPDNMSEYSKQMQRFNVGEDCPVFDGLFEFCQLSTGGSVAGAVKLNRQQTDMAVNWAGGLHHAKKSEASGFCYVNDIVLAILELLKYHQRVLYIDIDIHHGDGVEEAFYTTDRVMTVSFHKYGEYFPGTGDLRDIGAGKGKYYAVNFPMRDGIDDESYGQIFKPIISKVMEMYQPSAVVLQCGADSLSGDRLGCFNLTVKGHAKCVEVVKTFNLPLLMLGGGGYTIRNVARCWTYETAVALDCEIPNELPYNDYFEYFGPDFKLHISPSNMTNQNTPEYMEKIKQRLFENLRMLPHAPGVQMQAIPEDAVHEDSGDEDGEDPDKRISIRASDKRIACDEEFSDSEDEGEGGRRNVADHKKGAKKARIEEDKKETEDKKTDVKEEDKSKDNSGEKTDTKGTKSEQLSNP
Nature of the assay: HDAC2 biochemical assay, AMC-labeled peptide substrate. The note with it: read-out: HDAC Isoform IC50 (nM) 2. As for the experimental part:
(§1) Activity against all zinc-dependent HDACs 1 to 11 was assessed by using an acetylated AMC-labeled peptide substrate. The substrate RHKK(Ac)AMC was used for HDAC1, HDAC2, HDAC3, HDAC6 and HDAC10; the substrate used for HDAC8 was RHK(Ac)K(Ac)AMC. Activity against the class IIa HDACs (HDAC4, 5, 7, 9) and HDAC11 was determined using a class IIa-specific substrate, BOC-Lys(trifluoroacetyl)-AMC (“Trifluoroacetyl Lysine”; see Lahm et al, 2007, PNAS, 104, 17335-17340). All assays were based on the AMC-labeled substrate and developer combination.
(§2) The protocol involved a two-step reaction: first, the substrate with the acetylated lysine side chain is incubated with a sample containing HDAC activity, to produce the deacetylated products, which are then digested in the second step by the addition of developer to produce the fluorescent signal proportional to the amount of deacetylated substrates.
Human HDAC2 (GenBank Accession No. NM_001527), full length with C-terminal GST-tag, MW=82.9 kDa, expressed inbaculovirus expression system.
(§3) Assay Buffer: 50 mM Tris-HCl, pH8.0, 137 mM NaCl, 2.7 mM KCl, 1 mM MgC2. Before use, 1 mg/mL BSA and DMSO are added.
HDAC2: 0.07 ng/ul HDAC2 and 50 μM HDAC substrate are in the reaction buffer with 1% DMSO final. Incubate for 1 hour at 30° C.
(§4) Stage 1: Deacetylation of substrate by incubation of HDAC enzymes with compounds
(§5) Stage 2: Development by addition of Developer to digest the deacetylated substrate, and generate the fluorescent colour; Detection: 360/460 Ex/Em

The target of another assay is T3, Human HDAC4 (Homo sapiens, UniProt P56524).
T3 construct: amino acids 627-1085 with N-terminal GST tag; GST (N); host or cells: baculovirus expression system
T3 sequence (P56524 627-1084 limits assumed): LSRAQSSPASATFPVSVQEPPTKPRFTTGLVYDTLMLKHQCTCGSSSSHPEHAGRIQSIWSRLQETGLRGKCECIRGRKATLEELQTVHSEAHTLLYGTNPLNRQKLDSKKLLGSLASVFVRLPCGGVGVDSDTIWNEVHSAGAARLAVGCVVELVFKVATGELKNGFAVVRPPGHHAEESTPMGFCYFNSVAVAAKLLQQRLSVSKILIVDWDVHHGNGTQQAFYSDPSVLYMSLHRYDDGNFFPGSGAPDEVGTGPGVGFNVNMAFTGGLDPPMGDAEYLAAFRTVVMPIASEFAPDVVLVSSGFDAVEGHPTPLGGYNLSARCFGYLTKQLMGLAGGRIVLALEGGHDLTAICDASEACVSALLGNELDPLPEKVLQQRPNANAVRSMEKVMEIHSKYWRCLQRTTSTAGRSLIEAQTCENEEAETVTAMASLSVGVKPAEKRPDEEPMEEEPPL
Put plainly: HDAC4 biochemical assay, class IIa-specific substrate. The note with it: read-out: HDAC Isoform IC50 (nM) 4. In a few lines:
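Two-step fluorogenic read-out: deacetylated BOC-Lys(trifluoroacetyl)-AMC (50 μM) was digested by developer and measured at Ex/Em 360/460. Deacetylation by 0.004 ng/ul HDAC4 (aa 627-1085, N-terminal GST) ran 30 min at room temperature, pH 8.0 Tris buffer, 1 mg/mL BSA, 1% DMSO.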

For the next assay, the target named is T4, Human HDAC5 (Homo sapiens, UniProt Q9UQL6).
T4 construct: full length with C-terminal His tag, MW=51.1 kDa; His (C); host or cells: baculovirus expression system
T4 sequence (Q9UQL6 656-1122 limits assumed): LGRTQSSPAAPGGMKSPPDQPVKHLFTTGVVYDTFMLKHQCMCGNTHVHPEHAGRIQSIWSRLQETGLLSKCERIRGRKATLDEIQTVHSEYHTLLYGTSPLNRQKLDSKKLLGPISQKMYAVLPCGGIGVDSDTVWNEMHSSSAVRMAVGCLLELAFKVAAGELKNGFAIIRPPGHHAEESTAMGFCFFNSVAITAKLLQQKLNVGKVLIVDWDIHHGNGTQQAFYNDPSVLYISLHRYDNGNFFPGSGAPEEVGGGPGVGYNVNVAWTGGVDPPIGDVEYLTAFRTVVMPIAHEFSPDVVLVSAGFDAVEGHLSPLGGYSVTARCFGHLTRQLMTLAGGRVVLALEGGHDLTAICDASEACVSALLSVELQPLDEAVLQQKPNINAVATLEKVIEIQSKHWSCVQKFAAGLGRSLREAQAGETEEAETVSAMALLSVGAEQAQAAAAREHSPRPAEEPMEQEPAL
Put plainly: HDAC5 biochemical assay, class IIa-specific substrate. To be noted: read-out: HDAC Isoform IC50 (nM) 5. Summed up: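 Two-step fluorogenic read-out: deacetylated trifluoroacetyl-lysine AMC substrate (50 μM) digested by developer, measured at Ex/Em 360/460. Deacetylation step: 0.05 ng/ul His-tagged full-length baculoviral enzyme with compound, 30 min, room temperature, pH 8.0 Tris with 1 mg/mL BSA and 1% DMSO.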

A further assay has as its target T5, Human HDAC10 (Homo sapiens, UniProt Q969S8).
T5 construct: Human HDAC10 (a.a. 1-481); GST (N); His (C); host or cells: baculovirus expression system
T5 sequence (Q969S8 1-481): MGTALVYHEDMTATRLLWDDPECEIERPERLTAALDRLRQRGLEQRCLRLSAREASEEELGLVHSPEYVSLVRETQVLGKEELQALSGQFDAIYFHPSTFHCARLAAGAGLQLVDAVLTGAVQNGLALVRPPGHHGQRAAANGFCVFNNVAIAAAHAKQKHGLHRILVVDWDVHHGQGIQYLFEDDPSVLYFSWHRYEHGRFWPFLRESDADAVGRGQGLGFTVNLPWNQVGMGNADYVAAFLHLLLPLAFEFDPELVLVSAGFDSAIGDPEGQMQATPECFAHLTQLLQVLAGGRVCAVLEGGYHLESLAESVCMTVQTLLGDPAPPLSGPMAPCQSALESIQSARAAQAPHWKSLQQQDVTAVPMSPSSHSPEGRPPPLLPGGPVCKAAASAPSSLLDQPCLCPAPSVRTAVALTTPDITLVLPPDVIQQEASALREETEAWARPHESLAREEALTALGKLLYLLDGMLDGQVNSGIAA
Put plainly: HDAC10 biochemical assay, AMC-labeled peptide substrate. To be noted: read-out: HDAC Isoform IC50 (nM) 10. As for the experimental part: as §1, §2
Human HDAC10 (a.a. 1-481), GenBank Accession No. NM_032019 with N-terminal GST tag and C-terminal His tag, MW=78 kDa, expressed in baculovirus expression system.
as §3
HDAC10: 12 ng/ul HDAC10 and 50 μM HDAC substrate are in the reaction buffer with 1% DMSO final. Incubate for 2 hours at 30° C.
as §4, §5

A further assay concerns the target T6, Human HDAC11 (Homo sapiens, UniProt Q96DB2).
T6 construct: Human HDAC11 (full length); His (N); host or cells: baculovirus expression system
T6 sequence (Q96DB2 1-347): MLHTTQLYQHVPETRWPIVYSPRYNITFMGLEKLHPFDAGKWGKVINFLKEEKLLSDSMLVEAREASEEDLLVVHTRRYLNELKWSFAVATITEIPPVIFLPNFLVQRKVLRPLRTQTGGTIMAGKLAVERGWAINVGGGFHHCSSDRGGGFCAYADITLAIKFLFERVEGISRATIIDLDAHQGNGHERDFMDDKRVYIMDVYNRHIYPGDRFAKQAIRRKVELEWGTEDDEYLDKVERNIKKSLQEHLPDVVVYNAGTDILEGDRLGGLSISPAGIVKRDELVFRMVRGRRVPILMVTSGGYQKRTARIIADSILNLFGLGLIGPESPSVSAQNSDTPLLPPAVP
Nature of the assay: HDAC11 biochemical assay, class IIa-specific substrate. The note with it: read-out: HDAC Isoform IC50 (nM) 11. As for the experimental part:
as §1, §2
Human HDAC11 (full length) (GenBank Accession No. NM_024827) with N-terminal His tag, MW=42.9 kDa, expressed in baculovirus expression system.
as §3
HDAC11: 5 ng/ul HDAC11 and 50 μMHDAC substrate are in the reaction buffer with 1% DMSO final. Incubate for 30 minutes at 30° C.
as §4, §5

T1 sequence (Q13547 whole entry): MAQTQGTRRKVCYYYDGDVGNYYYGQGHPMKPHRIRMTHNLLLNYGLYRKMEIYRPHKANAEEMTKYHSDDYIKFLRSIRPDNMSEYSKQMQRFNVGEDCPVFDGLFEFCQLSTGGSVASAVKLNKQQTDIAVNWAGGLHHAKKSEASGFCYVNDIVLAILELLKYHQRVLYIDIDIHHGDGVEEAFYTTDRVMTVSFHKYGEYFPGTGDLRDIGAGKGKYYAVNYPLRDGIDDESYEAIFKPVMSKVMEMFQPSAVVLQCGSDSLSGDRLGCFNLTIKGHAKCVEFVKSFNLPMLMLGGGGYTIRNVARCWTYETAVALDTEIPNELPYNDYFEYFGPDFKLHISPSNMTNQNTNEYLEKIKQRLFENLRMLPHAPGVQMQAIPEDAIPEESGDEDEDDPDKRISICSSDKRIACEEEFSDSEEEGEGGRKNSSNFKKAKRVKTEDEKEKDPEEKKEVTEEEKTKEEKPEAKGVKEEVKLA

In the case of `O=C(O)c1cnnc(N(Cc2sc(-c3noc(C(F)(F)F)n3)cc2F)c2cnccn2)c1` [Example FA, 6-[({3-fluoro-5-[5-(trifluoromethyl)-1,2,4-oxadiazol-3-yl]thiophen-2-yl}methyl)(pyrazin-2-yl)amino]pyridazine-4-carboxylic acid], the IC50 was > 10000 nM at Human HDAC1; > 10000 nM on Human HDAC2; ≤ 10000 nM at Human HDAC4; ≤ 1000 nM on Human HDAC5; > 10000 nM on Human HDAC10; > 10000 nM on Human HDAC11.
As for `O=C(c1ccc(N(Cc2ccc(-c3noc(C(F)(F)F)n3)s2)c2cnccn2)nn1)N1C[C@@H]2C[C@H]1C[S@@+]2[O-]` [Example FR, (1S,2R,4S)-5-{6-[(Pyrazin-2-yl)({5-[5-(trifluoromethyl)-1,2,4-oxadiazol-3-yl]thiophen-2-yl}methyl)amino]pyridazine-3-carbonyl}-2-thia-5-azabicyclo[2.2.1]heptan-2-ium-2-olate], the IC50 at Human HDAC1 is ≤ 10000 nM; on Human HDAC2 it was > 10000 nM; at Human HDAC4, ≤ 500 nM; at Human HDAC5, ≤ 500 nM; at Human HDAC10 it was > 10000 nM; on Human HDAC11, > 10000 nM.
As to `FC(F)(F)c1nc(-c2ccc(CN(c3cnccn3)c3ncccn3)s2)no1` [Example AS, N-(Pyrimidin-2-yl)-N-({5-[5-(trifluoromethyl)-1,2,4-oxadiazol-3-yl]thiophen-2-yl}methyl)pyrazin-2-amine], the IC50 was > 10000 nM at Human HDAC1; > 10000 nM at Human HDAC2; ≤ 10000 nM on Human HDAC4; ≤ 1000 nM at Human HDAC5; > 10000 nM at Human HDAC10; > 10000 nM at Human HDAC11.
Regarding `COC1(C(F)(F)F)CN(C(=O)c2cnnc(N(Cc3ccc(-c4noc(C(F)(F)F)n4)s3)c3cnccn3)c2)C1` [Example GL, 5-[3-Methoxy-3-(trifluoromethyl)azetidine-1-carbonyl]-N-(pyrazin-2-yl)-N-({5-[5-(trifluoromethyl)-1,2,4-oxadiazol-3-yl]thiophen-2-yl}methyl)pyridazin-3-amine], the IC50 was ≤ 10000 nM on Human HDAC1; > 10000 nM at Human HDAC2; ≤ 10000 nM on Human HDAC4; ≤ 1000 nM on Human HDAC5; > 10000 nM at Human HDAC10; > 10000 nM on Human HDAC11.
`CNC(=O)c1ccc(N(Cc2ccc(-c3noc(C(F)(F)F)n3)s2)c2cnccn2)nn1` [Example FC, N-Methyl-6-[(pyrazin-2-yl)({5-[5-(trifluoromethyl)-1,2,4-oxadiazol-3-yl]thiophen-2-yl}methyl)amino]pyridazine-3-carboxamide]: the IC50 at Human HDAC1 is ≤ 10000 nM; at Human HDAC2 it was > 10000 nM; at Human HDAC4, ≤ 1000 nM; on Human HDAC5, ≤ 500 nM; at Human HDAC10 it was > 10000 nM; on Human HDAC11 it was > 10000 nM.
Turning to `O=C(c1cnnc(N(Cc2ccc(-c3noc(C(F)(F)F)n3)s2)c2cnccn2)c1)N1CCCC1` [Example EA, N-(Pyrazin-2-yl)-5-(pyrrolidine-1-carbonyl)-N-({5-[5-(trifluoromethyl)-1,2,4-oxadiazol-3-yl]thiophen-2-yl}methyl)pyridazin-3-amine], the IC50 at Human HDAC1 was > 10000 nM; on Human HDAC2, > 10000 nM; on Human HDAC4 it was ≤ 10000 nM; at Human HDAC5, ≤ 1000 nM; on Human HDAC10, > 10000 nM; at Human HDAC11 it was > 10000 nM.
For the molecule `O=C(c1ccc(N(Cc2ccc(-c3noc(C(F)(F)F)n3)s2)c2cnccn2)nn1)N1CC[S+]([O-])CC1` [Example FD, 4-{6-[(Pyrazin-2-yl)({5-[5-(trifluoromethyl)-1,2,4-oxadiazol-3-yl]thiophen-2-yl}methyl)amino]pyridazine-3-carbonyl}-1lambda4-thiomorpholin-1-one], the IC50 was ≤ 10000 nM at Human HDAC1; > 10000 nM on Human HDAC2; ≤ 500 nM on Human HDAC4; ≤ 500 nM at Human HDAC5; > 10000 nM on Human HDAC10; > 10000 nM at Human HDAC11.
For `COc1cncc(N(Cc2ccc(-c3noc(C(F)(F)F)n3)s2)c2cc(C(F)(F)F)cnn2)n1` [Example EN, N-(6-Methoxypyrazin-2-yl)-5-(trifluoromethyl)-N-({5-[5-(trifluoromethyl)-1,2,4-oxadiazol-3-yl]thiophen-2-yl}methyl)pyridazin-3-amine], the IC50 on Human HDAC1 was > 10000 nM; at Human HDAC4, ≤ 10000 nM; on Human HDAC5 it was ≤ 10000 nM.
In the case of `FC(F)(F)c1cnnc(N(Cc2ccc(-c3noc(C(F)(F)F)n3)s2)c2cc(C(F)(F)F)cnn2)c1` [Example EU, 5-(Trifluoromethyl)-N-({5-[5-(trifluoromethyl)-1,2,4-oxadiazol-3-yl]thiophen-2-yl}methyl)-N-[5-(trifluoromethyl)pyridazin-3-yl]pyridazin-3-amine], the 50% inhibitory concentration (IC50) is > 10000 nM at Human HDAC1, ≤ 10000 nM at Human HDAC4 and ≤ 10000 nM at Human HDAC5.
For `FC(F)(F)c1cnnc(N(Cc2ccc(-c3noc(C(F)(F)F)n3)s2)c2cccnn2)c1` [Example ER, N-(Pyridazin-3-yl)-5-(trifluoromethyl)-N-({5-[5-(trifluoromethyl)-1,2,4-oxadiazol-3-yl]thiophen-2-yl}methyl)pyridazin-3-amine], the concentration for half-maximal inhibition (IC50) was > 10000 nM at Human HDAC1, ≤ 10000 nM at Human HDAC4 and ≤ 10000 nM at Human HDAC5.

By IC50 is commonly meant the concentration at which inhibition is half-maximal.
